From ChEMBL document CHEMBL5120754, “Structural modification aimed for improving solubility of lead compounds in early phase drug discovery” (Bioorg Med Chem, 2022)
Values after ≈ are worked out from the molar mass of the structure shown.

Legend:
physchem [1] = conditions: buffer
Cannabinoid receptor 2 = Cannabinoid receptor 2 (Homo sapiens, UniProt P34972); experiment: Binding affinity towards human CB2 receptor
[2] = Inhibition of rabbit aortic ACAT; parameters: species or system Oryctolagus cuniculus
[3] = target: 3',5'-cyclic-AMP phosphodiesterase 4D (Homo sapiens, UniProt Q08499); experiment: Inhibition of PDE4D (unknown origin)
[4] = target: Metabotropic glutamate receptor 2 (Homo sapiens, UniProt Q14416); experiment: Positive allosteric modulation of mGlu2 receptor (unknown origin)
physchem [5] = conditions: octanol/water
[6] = Permeability of compound in human Caco-2 cells; assay type: ADME, cell-based; conditions: read-out: permeability
Plasmodium falciparum [7] = experiment: Antimalarial activity against blood stage chloroquine-sensitive Plasmodium falciparum 3D7 infected in human red blood cells measured by [3H]hypoxanthine incorporation assay; assay type: functional, organism-based, RBC; conditions: 3D7, Erythrocyte
[8] = target: Histone-lysine N-methyltransferase EZH2 (Homo sapiens, UniProt Q15910, Y641N); experiment: Inhibition of EZH2 Y641N mutant (unknown origin)
Hepatitis C virus = experiment: Antiviral activity against HCV GT1b-genotype; assay type: functional, organism-based, Hepacivirus hominis
[9] = buffer
[10] = target: Glutamate receptor ionotropic AMPA (Homo sapiens, UniProt P42261+P42262+P42263+P48058); experiment: Antagonist activity at AMPA receptor (unknown origin); assay type: protein-complex assay
[11] = Antagonist activity at GlyN receptor (unknown origin); parameters: species or system Homo sapiens
[12] = target: Bifunctional epoxide hydrolase 2 (Homo sapiens, UniProt P34913); experiment: Inhibition of recombinant human sEH using CMNPC as substrate incubated for 10 mins and measured by fluorescence assay
[13] = system: Mycobacterium tuberculosis; experiment: microbe, parasite or virus in culture
[14] = target: T1, Glucose-dependent insulinotropic receptor (Homo sapiens, UniProt Q8TDV5); experiment: Agonist activity at human GPR119; assay type: functional
T1 sequence (Q8TDV5 whole entry): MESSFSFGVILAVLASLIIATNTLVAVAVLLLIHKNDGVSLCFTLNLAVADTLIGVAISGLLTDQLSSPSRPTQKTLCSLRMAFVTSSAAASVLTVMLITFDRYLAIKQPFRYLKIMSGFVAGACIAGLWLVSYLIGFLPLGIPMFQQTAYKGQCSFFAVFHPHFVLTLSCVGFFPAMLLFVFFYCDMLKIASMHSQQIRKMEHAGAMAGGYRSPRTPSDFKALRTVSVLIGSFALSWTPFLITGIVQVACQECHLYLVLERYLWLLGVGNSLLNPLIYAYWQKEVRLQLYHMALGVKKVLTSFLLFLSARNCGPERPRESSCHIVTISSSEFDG

Heat shock protein HSP90 = Heat shock protein HSP90 (Homo sapiens, UniProt P07900+P08238); experiment: Inhibition of HSP90 (unknown origin); assay type: protein assay
HCT-116 = experiment: Antiproliferative activity against human HCT-116 cells; assay type: functional, cell-based
[15] = Inhibition of PI3K (unknown origin) activity; parameters: species or system Homo sapiens
Glutamate NMDA receptor = experiment: Antagonist activity at NMDA receptor in rat cortical wedges assessed as inhibition of NMDA-induced depolarization
Staphylococcus aureus = experiment: Antibacterial activity against methicillin-resistant Staphylococcus aureus in in-vivo systemic infection model; assay type: functional
NCI-N87 = experiment: cells; conditions: Homo sapiens, NCI-N87, 96 h
[16] = system: Trypanosoma brucei brucei; experiment: Antitrypanosomal activity against Trypanosoma brucei brucei S427 incubated for 48 hrs by PrestoBlue dye based fluorescence assay; assay type: functional, organism-based; conditions: S427, 48 h
[17] = target: Isocitrate dehydrogenase [NADP] cytoplasmic (Homo sapiens, UniProt O75874, R132H); experiment: Inhibition of IDH1 R132H mutant (unknown origin)
[18] = target: Peroxisome proliferator-activated receptor gamma (Homo sapiens, UniProt P37231); experiment: Agonist activity at human PPARgamma
[19] = Lipophilicity, logD of compound; assay type: physicochemical; conditions: octanol/water
[20] = target: T1, Glucose-dependent insulinotropic receptor; experiment: Agonist activity at GPR119 (unknown origin); assay type: functional
P2Y purinoceptor 12 = P2Y purinoceptor 12 (Homo sapiens, UniProt Q9H244); experiment: Antagonist activity at P2Y12 receptor in human platelet rich plasma; assay type: functional
[21] = target: Epidermal growth factor receptor (Homo sapiens, UniProt P00533, L858R/T790M)
[22] = target: Transient receptor potential cation channel subfamily V member 1 (Homo sapiens, UniProt Q8NER1); experiment: Antagonist activity at TRPV1 (unknown origin)
A549 [23] = experiment: Antiproliferative activity against human A549 cells by MTT assay; assay type: functional, cell-based
[24] = target: Tyrosine-protein kinase SYK (Homo sapiens, UniProt P43405); experiment: Inhibition of SYK (unknown origin)
A549 [25] = experiment: Antiproliferative activity against human A549 cells; assay type: functional, cell-based; conditions: read-out: TD50 (the source's name)
[26] = target: Corticotropin-releasing factor receptor 1 (Homo sapiens, UniProt P34998); experiment: Antagonist activity at human CRF1 receptor; assay type: functional
Plasmodium falciparum [27] = experiment: Antimalarial activity against blood stage drug-sensitive Plasmodium falciparum NF54; assay type: functional, organism-based
Plasmodium falciparum [28] = experiment: Antimalarial activity against blood stage multidrug-resistant Plasmodium falciparum K1; assay type: functional, organism-based
[29] = target: cGMP-specific 3',5'-cyclic phosphodiesterase (Homo sapiens, UniProt O76074); experiment: Inhibition of PDE5 (unknown origin) using FAM-cGMP or FAM-cAMP as substrate incubated for 60 mins and measured by fluorescence polarization assay

3',5'-cyclic-AMP phosphodiesterase 4D, sequence (Q08499 whole entry): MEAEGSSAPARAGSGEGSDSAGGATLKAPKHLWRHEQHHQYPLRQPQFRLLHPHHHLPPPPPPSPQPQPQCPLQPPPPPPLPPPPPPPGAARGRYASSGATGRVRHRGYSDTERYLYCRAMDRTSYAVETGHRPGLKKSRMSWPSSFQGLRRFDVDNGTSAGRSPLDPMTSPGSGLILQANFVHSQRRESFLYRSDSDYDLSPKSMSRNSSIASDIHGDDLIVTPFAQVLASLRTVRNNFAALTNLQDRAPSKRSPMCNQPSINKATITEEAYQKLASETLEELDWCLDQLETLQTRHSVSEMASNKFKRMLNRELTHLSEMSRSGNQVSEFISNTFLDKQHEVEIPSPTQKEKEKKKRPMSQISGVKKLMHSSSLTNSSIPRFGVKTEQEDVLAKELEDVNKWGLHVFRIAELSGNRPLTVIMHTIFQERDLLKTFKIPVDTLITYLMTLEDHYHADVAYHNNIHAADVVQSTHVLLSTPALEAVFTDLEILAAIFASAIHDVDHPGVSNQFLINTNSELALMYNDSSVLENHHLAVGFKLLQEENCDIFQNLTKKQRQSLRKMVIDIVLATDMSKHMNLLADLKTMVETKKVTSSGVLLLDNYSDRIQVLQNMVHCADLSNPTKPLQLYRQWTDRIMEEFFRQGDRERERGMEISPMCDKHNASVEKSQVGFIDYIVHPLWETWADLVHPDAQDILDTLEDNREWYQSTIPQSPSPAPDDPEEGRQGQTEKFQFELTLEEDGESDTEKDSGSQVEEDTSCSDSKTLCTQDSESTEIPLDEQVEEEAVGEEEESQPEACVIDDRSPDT
P2Y purinoceptor 12, sequence (Q9H244 whole entry): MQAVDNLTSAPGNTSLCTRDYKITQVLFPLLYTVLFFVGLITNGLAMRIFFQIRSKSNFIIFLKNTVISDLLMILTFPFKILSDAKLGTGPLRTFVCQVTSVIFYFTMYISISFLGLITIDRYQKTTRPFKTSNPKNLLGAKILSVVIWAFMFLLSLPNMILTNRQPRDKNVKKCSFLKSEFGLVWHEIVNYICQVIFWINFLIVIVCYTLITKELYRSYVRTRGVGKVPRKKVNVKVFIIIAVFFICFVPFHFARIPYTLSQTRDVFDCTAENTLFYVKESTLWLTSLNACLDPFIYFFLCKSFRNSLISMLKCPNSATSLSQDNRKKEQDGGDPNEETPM
Metabotropic glutamate receptor 2, sequence (Q14416 whole entry): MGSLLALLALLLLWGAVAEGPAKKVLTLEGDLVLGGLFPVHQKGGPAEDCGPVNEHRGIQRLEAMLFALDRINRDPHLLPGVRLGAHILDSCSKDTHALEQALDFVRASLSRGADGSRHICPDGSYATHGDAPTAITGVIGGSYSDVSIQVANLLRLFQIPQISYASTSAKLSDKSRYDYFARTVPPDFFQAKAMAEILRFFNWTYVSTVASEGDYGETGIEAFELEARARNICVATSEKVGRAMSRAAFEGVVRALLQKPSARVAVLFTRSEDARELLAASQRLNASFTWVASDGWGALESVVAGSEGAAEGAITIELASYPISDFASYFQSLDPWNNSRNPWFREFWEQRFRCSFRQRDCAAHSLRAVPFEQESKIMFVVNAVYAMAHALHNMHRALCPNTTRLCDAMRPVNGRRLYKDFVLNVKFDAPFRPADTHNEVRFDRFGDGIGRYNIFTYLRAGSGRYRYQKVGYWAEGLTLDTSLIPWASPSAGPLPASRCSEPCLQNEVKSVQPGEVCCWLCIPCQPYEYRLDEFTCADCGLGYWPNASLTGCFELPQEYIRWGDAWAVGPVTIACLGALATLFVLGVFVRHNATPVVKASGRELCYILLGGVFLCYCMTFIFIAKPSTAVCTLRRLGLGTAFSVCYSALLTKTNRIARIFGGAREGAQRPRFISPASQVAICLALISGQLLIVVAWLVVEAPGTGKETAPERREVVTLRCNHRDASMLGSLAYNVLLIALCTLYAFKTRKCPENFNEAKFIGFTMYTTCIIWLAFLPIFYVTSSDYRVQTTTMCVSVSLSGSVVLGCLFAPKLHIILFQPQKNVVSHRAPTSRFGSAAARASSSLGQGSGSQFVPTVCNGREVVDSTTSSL
Corticotropin-releasing factor receptor 1, sequence (P34998 whole entry): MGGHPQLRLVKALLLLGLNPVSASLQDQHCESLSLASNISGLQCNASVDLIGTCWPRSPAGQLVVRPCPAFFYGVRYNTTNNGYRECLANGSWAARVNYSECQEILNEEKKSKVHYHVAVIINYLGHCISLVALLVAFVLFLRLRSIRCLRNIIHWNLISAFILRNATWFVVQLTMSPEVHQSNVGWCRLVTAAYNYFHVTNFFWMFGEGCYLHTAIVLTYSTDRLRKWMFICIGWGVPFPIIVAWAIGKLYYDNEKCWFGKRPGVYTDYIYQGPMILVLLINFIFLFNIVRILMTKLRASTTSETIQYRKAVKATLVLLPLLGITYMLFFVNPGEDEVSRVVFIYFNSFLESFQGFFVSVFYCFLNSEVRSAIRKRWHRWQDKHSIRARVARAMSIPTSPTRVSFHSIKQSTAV
Transient receptor potential cation channel subfamily V member 1, sequence (Q8NER1 whole entry): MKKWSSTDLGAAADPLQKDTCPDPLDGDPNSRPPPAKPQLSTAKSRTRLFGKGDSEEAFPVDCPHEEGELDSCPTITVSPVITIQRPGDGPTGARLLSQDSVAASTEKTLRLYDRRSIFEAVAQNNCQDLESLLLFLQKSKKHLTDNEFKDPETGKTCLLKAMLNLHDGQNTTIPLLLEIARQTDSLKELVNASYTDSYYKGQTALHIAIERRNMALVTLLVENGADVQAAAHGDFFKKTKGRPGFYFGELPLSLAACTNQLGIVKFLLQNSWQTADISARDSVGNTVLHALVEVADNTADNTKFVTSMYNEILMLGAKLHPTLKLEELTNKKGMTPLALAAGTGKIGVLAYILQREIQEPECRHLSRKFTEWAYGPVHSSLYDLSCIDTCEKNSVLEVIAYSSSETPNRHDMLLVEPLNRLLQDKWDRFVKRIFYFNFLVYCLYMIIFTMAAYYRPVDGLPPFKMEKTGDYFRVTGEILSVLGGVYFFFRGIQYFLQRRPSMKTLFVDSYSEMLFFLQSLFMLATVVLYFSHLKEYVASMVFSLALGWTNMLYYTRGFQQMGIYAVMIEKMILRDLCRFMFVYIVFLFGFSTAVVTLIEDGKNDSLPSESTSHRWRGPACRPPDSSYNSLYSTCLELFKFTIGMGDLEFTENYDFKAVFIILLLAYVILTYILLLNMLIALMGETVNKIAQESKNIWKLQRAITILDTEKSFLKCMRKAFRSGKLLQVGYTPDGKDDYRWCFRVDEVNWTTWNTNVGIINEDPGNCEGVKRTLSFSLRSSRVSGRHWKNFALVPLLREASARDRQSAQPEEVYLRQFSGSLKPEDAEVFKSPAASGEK
Bifunctional epoxide hydrolase 2, sequence (P34913 whole entry): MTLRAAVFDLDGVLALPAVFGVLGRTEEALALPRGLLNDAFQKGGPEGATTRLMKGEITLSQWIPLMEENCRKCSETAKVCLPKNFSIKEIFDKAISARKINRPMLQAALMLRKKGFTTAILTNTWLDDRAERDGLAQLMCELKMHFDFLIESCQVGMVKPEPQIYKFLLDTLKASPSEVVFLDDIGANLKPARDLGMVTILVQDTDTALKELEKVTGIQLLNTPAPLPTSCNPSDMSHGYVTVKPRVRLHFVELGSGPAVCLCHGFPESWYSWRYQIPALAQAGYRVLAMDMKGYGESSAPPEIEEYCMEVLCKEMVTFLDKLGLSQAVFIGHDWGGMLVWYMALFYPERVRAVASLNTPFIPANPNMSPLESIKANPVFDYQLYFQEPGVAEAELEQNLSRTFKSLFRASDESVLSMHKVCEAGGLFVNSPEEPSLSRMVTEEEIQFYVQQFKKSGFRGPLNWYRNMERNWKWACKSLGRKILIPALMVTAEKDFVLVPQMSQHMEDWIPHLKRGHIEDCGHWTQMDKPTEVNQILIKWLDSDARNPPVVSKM
Histone-lysine N-methyltransferase EZH2, sequence (Q15910 whole entry Y641N): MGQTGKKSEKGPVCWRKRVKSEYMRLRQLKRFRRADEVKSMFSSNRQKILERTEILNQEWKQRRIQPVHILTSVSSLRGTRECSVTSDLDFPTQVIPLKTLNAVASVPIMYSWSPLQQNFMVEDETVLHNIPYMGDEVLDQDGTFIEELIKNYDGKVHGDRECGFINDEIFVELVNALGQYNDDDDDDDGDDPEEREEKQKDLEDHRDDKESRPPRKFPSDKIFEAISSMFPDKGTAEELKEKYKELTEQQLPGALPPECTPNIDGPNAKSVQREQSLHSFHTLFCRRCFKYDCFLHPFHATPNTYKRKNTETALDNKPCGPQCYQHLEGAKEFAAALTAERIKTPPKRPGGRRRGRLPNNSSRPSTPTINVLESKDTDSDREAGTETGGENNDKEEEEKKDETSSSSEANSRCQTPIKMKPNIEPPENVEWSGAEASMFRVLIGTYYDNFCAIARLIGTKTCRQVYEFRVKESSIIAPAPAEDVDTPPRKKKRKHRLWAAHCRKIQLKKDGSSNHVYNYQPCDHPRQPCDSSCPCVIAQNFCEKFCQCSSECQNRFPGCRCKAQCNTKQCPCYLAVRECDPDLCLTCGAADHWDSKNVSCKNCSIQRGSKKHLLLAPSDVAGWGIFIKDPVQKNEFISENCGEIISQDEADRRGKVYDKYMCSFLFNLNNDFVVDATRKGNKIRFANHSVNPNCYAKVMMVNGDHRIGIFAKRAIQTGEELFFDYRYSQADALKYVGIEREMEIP
Cannabinoid receptor 2, sequence (P34972 whole entry): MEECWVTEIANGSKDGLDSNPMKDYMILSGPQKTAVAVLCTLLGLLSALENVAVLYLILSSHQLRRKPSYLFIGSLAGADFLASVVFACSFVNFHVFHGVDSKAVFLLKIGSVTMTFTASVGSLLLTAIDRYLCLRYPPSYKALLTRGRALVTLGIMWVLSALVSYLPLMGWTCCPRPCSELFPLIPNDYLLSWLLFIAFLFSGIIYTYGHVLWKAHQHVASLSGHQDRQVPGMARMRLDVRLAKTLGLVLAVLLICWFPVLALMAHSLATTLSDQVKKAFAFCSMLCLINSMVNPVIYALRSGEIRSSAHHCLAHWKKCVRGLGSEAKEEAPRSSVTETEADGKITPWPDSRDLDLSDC

Structure (SMILES): CCCCCn1c(=O)c(C(=O)NC23CC4CC(CC(C4)C2)C3)c(O)c2ccc(F)cc21
- solubility thermodynamic (physchem [1]): 1.5 µg/mL
- Ki (Cannabinoid receptor 2): 0.0008 µM

Structure (SMILES): CC(C)c1cccc(C(C)C)c1NC(=O)CN1CCN(CCSc2nc3ccccc3o2)CC1
- solubility thermodynamic (physchem [1]): 19000 µg/mL
- IC50 [2]: 0.084 µM

Structure (SMILES): O=C(O)C1CCC(c2cc3cccnc3c(-c3cccc(F)c3)n2)CC1 (centres undefined)
- solubility thermodynamic (physchem [1]): 920 µg/mL
- IC50 [3]: 0.032 µM

Structure (SMILES): Fc1ccc(C2CCC(c3ccn4c(CC5CC5)nnc4c3C(F)(F)F)CC2)c(F)c1 (centres undefined)
- solubility thermodynamic (physchem [1]): 50 µg/mL
- EC50 [4]: 0.078 µM
- logP (physchem [5]): 4.2
- Papp [6]: 22 ×10⁻⁶ cm/s

Structure (SMILES): Cc1ccc(-c2cc(C(=O)Nc3cccnc3)c3cc(F)ccc3n2)cc1
- solubility thermodynamic (physchem [1]): 39 µM
- EC50 (Plasmodium falciparum [7]): 0.12 µM

Structure (SMILES): COc1cc(C)[nH]c(=O)c1CN1CCc2c(Cl)cc([C@H](OC)C3COC3)c(Cl)c2C1=O [MEVROMETOSTAT]
- Ki [8]: < 0.0001 µM

Structure (SMILES): COc1c(/C=C/c2ccc(NS(C)(=O)=O)cc2)cc(N2CCC(=O)NC2=O)cc1C(C)(C)C
- EC50 (Hepatitis C virus): 0.0003 µM
- Therm_solubility [9]: 20700 µg/mL

Structure (SMILES): CCOC(=O)CN(C)Cc1c(CC)c([N+](=O)[O-])cc2nc(O)c(O)nc12
- solubility thermodynamic (physchem [1]): 150 µg/mL
- IC50 [10]: 0.14 µM
- IC50 [11]: 0.47 µM

Structure (SMILES): O=C(NC1=CC=CC1)NC12CC3CC(CC(C3)C1)C2
- IC50 [12]: 0.0004 µM
- solubility thermodynamic (physchem [1]): 0.1 µg/mL
- MIC [13]: 0.01 µg/mL (≈ 0.0387 µM)

Structure (SMILES): CC(C)OC(=O)N1CCC(n2ncc3ccc(-c4cc(F)c(S(C)(=O)=O)cc4F)nc32)CC1
- solubility thermodynamic (physchem [1]): 15.9 µM
- EC50 [14]: 0.065 µM

Structure (SMILES): CCc1cc(C(=O)N2Cc3ccccc3C2)c(O)cc1O
- Kd (Heat shock protein HSP90): 0.00054 µM
- IC50 (HCT-116): 0.031 µM

Structure (SMILES): CC(C)c1cccc(C(C)C)c1NC(=O)CCCCCCCCSc1nc2ccccc2o1
- IC50 [2]: 0.004 µM
- Therm_solubility [9]: 0.03 µg/mL

Structure (SMILES): CCc1cc(C(=O)N2Cc3ccc(CN4CCN(C)CC4)cc3C2)c(O)cc1O
- Kd (Heat shock protein HSP90): 0.00071 µM
- solubility thermodynamic (physchem [1]): 30000 µg/mL
- IC50 (HCT-116): 0.048 µM

Structure (SMILES): CCN1CCN(c2cc(F)c(NC(=O)N3CCc4c(-c5cnc(N)nc5)nc(N5CCOCC5)nc43)c(F)c2)CC1
- solubility thermodynamic (physchem [1]): 20 µg/mL
- IC50 [15]: 0.022 µg/mL (≈ 0.0388 µM)

Structure (SMILES): CCC(c1c(Cl)c(Cl)cc2nc(O)c(O)nc12)n1cncn1 (centres undefined)
- solubility thermodynamic (physchem [1]): 10 µg/mL
- IC50 (Glutamate NMDA receptor): 0.0044 µM

Structure (SMILES): CC(=O)NC[C@H]1CN(c2ccc(N3CCOCC3)c(F)c2)C(=O)O1 [LINEZOLID]
- ED50 (Staphylococcus aureus): 5 mg/kg

Structure (SMILES): CSc1nc(N)nc(-c2c(Cl)cc3c4c(cccc24)COC3)n1
- solubility thermodynamic (physchem [1]): 29 µM
- IC50 (NCI-N87): 0.57 µM

Structure (SMILES): CN1CCCN(c2ncc(-c3ccc4c(Nc5cnccn5)ccnc4c3)cn2)CC1
- EC50 [16]: 0.013 µM

Structure (SMILES): COc1nc(N[C@@H](C)c2cc3cc(Cl)ccc3[nH]c2=O)ncc1C#N
- solubility thermodynamic (physchem [1]): 10.5 µM
- IC50 [17]: 0.0814 µM

Structure (SMILES): CCCOc1ccc(CC(Cc2ccccc2)C(=O)O)cc1CNC(=O)c1ccc(-c2ncccn2)cc1 (centres undefined)
- solubility thermodynamic (physchem [1]): 301 µg/mL
- EC50 [18]: 0.0346 µM

Structure (SMILES): CC(C)c1nc(N2CCN(c3ncc(OCc4ccncc4C#N)cn3)CC2)no1
- logD [19]: 3.3
- EC50 [20]: 0.006 µM
- solubility thermodynamic (physchem [1]): 6 µM

Structure (SMILES): CCOC(=O)c1cc(C#N)c(N2CCC(C(=O)NS(=O)(=O)Cc3ccccc3)CC2)nc1C
- solubility thermodynamic (physchem [1]): 2.99 µM
- IC50 (P2Y purinoceptor 12): 3.6 µM

Structure (SMILES): C=CC(=O)N1CCC(N2C(=O)N(c3ccccc3)Cc3cnc(Nc4ccc(N5CCN(C)CC5)c(C)c4)nc32)C1 (centres undefined)
- IC50 [21]: 0.0092 µM

Structure (SMILES): CC(=O)Nc1nc2c(Oc3cc(C4=CCC(C(F)(F)F)CC4)ncn3)cccc2s1 (centres undefined)
- solubility thermodynamic (physchem [1]): 13 µg/mL
- IC50 [22]: 0.027 µM

Structure (SMILES): CC[C@]1(OC(=O)CNC(=O)CCC(=O)O)C(=O)OCc2c1ccn(Cc1cnc3ccc4c(c3c1)C(=O)NC(C(C)C)O4)c2=O (some centres undefined)
- solubility thermodynamic (physchem [1]): 3400 µg/mL
- IC50 (A549 [23]): 6.47 µM

Structure (SMILES): CC(C)N1C[C@H]2C[C@@H]1CN2c1ccc(Nc2nc(-c3ccc4cn[nH]c4c3)cn3ccnc23)cc1
- solubility thermodynamic (physchem [1]): 0.216 µg/mL
- IC50 [24]: 0.08 µM

Structure (SMILES): Cc1nc(C)c(CC2CC/C(=C\c3c(-c4ccccc4)n(C)c4ncccc34)C2=O)nc1C (centres undefined)
- solubility thermodynamic (physchem [1]): 94000 µg/mL
- CC50 (A549 [25]): 22 µM

Structure (SMILES): CCCN(CC1CC1)c1cc(C)nc2c(-c3ccc(Cl)cc3Cl)c(C)nn12
- IC50 [26]: 0.076 µM

Structure (SMILES): CCc1cnc(N2CCC(n3ncc4ccc(-c5ccc(S(C)(=O)=O)cc5F)nc43)CC2)cn1
- solubility thermodynamic (physchem [1]): 0.71 µM
- EC50 [14]: 0.004 µM

Structure (SMILES): Nc1ncc(-c2ccc(C(=O)N3CC(O)C3)cc2)nc1-c1ccc(C(F)(F)F)nc1
- solubility thermodynamic (physchem [1]): 55 µM
- IC50 (Plasmodium falciparum [27]): 0.0092 µM
- IC50 (Plasmodium falciparum [28]): 0.007 µM

Structure (SMILES): COc1ccc(CNc2c(CO)cnc3c(C4CC4)cc(C#N)cc23)cc1Cl
- solubility thermodynamic (physchem [1]): 3.9 µM
- IC50 [29]: 0.00037 µM
